According to PubChem BioAssay AID248 (DTP/NCI, 2004):
Several values for one entry are separate records, joined by “and”; a condition that tells them apart may be missing. Equal entries are not always repeated. Toxic doses and inconclusive results are not listed.

System: L1210 leukemia ip in BDF1 mice, survival T/C
Test: NCI In Vivo Anticancer Drug Screen. Data for tumor model L1210 Leukemia (intraperitoneal) in B6D2F1 (BDF1) mice
Conditions: endpoint: mean survival time, higher = longer survival
Summary of the method: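 Survival endpoint. Drug-treated group vs vehicle group, expressed as T divided by C. Tumor passaged by transplantation.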

[1] = dose: 100.0 mg/kg/injection, schedule: Q04DX002 (ip), vehicle: Klucel (hydroxypropylcellulose) (HPC)
[2] = dose: 200.0 mg/kg/injection, schedule: Q04DX002 (ip), vehicle: Klucel (hydroxypropylcellulose) (HPC)
[3] = dose: 400.0 mg/kg/injection, schedule: Q04DX002 (ip), vehicle: Klucel (hydroxypropylcellulose) (HPC)
[4] = dose: 100.0 mg/kg/injection, schedule: Q01DX001 (ip), vehicle: saline
[5] = dose: 100.0 mg/kg/injection, schedule: Q04DX002 (ip), vehicle: saline
[6] = dose: 200.0 mg/kg/injection, schedule: Q01DX001 (ip), vehicle: saline
[7] = dose: 200.0 mg/kg/injection, schedule: Q04DX002 (ip), vehicle: saline
[8] = dose: 400.0 mg/kg/injection, schedule: Q01DX001 (ip), vehicle: saline
[9] = dose: 400.0 mg/kg/injection, schedule: Q04DX002 (ip), vehicle: saline
[10] = dose: 14.0 mg/kg/injection, schedule: Q01DX009 (ip), vehicle: saline
[11] = dose: 100.0 mg/kg/injection, schedule: Q01DX001 (ip), vehicle: carboxymethylcellulose (CMC)
[12] = dose: 100.0 mg/kg/injection, schedule: Q01DX009 (ip), vehicle: Klucel (hydroxypropylcellulose) (HPC)
[13] = dose: 200.0 mg/kg/injection, schedule: Q01DX009 (ip), vehicle: Klucel (hydroxypropylcellulose) (HPC)
[14] = dose: 400.0 mg/kg/injection, schedule: Q01DX009 (ip), vehicle: Klucel (hydroxypropylcellulose) (HPC)
[15] = dose: 100.0 mg/kg/injection, schedule: Q01DX009 (ip), vehicle: saline
[16] = dose: 100.0 mg/kg/injection, schedule: Q04DX003 (ip), vehicle: saline
[17] = dose: 200.0 mg/kg/injection, schedule: Q01DX009 (ip), vehicle: saline
[18] = dose: 200.0 mg/kg/injection, schedule: Q04DX003 (ip), vehicle: saline
[19] = dose: 400.0 mg/kg/injection, schedule: Q01DX009 (ip), vehicle: saline
[20] = dose: 400.0 mg/kg/injection, schedule: Q04DX003 (ip), vehicle: saline
[21] = dose: 50.0 mg/kg/injection, schedule: Q01DX001 (ip), vehicle: carboxymethylcellulose (CMC)
[22] = dose: 200.0 mg/kg/injection, schedule: Q01DX001 (ip), vehicle: carboxymethylcellulose (CMC)
[23] = dose: 400.0 mg/kg/injection, schedule: Q01DX001 (ip), vehicle: carboxymethylcellulose (CMC)
[24] = dose: 100.0 mg/kg/injection, schedule: Q04DX003 (ip), vehicle: saline with Tween-80
[25] = dose: 200.0 mg/kg/injection, schedule: Q04DX003 (ip), vehicle: saline with Tween-80
[26] = dose: 100.0 mg/kg/injection, schedule: Q01DX009 (ip), vehicle: saline with Tween-80
[27] = dose: 200.0 mg/kg/injection, schedule: Q01DX009 (ip), vehicle: saline with Tween-80

Compound: C=Cc1ccccc1 (tested in a mixture with another compound)
- T/C (dose: 75.0 mg/kg/injection, schedule: Q01DX001 (ip), vehicle: other): 101 % of control
- T/C (dose: 150.0 mg/kg/injection, schedule: Q01DX001 (ip), vehicle: other): 97 % of control
- T/C (dose: 300.0 mg/kg/injection, schedule: Q01DX001 (ip), vehicle: other): 87 % of control

Compound: Cc1ccc(S(=O)(=O)N(CCCc2c(C)[nH]c(=S)[nH]c2=O)c2ccccc2)cc1
- T/C (dose: 50.0 mg/kg/injection, schedule: Q04DX002 (ip), vehicle: Klucel (hydroxypropylcellulose) (HPC)): 91 % of control
- T/C [1]: 100 % of control and 91 % of control
- T/C [2]: 100 % of control and 91 % of control
- T/C [3]: 100 % of control

Compound: CCCCCCCCCCCC[N+](CCCCCCCCCCCC)=C1SCCS1
- T/C (dose: 1.56 mg/kg/injection, schedule: Q04DX003 (ip), vehicle: carboxymethylcellulose (CMC)): 96 % of control
- T/C (dose: 3.13 mg/kg/injection, schedule: Q04DX003 (ip), vehicle: carboxymethylcellulose (CMC)): 104 % of control
- T/C (dose: 6.25 mg/kg/injection, schedule: Q04DX003 (ip), vehicle: carboxymethylcellulose (CMC)): 110 % of control

Compound: CNCCNC
- T/C [4]: 94 % of control
- T/C [5]: 103 % of control
- T/C [6]: 102 % of control
- T/C [7]: 103 % of control
- T/C [8]: 96 % of control
- T/C [9]: 90 % of control

Compound: CN(C)N=Nc1cccnc1
- T/C (dose: 8.0 mg/kg/injection, schedule: Q01DX009 (ip), vehicle: saline): 97 % of control
- T/C (dose: 9.5 mg/kg/injection, schedule: Q01DX001 (ip), vehicle: saline): 106 % of control
- T/C [10]: 103 % of control
- T/C (dose: 19.0 mg/kg/injection, schedule: Q01DX001 (ip), vehicle: saline): 106 % of control
- T/C (dose: 23.0 mg/kg/injection, schedule: Q01DX009 (ip), vehicle: saline): 108 % of control
- T/C (dose: 38.0 mg/kg/injection, schedule: Q01DX001 (ip), vehicle: saline): 117 % of control
- T/C (dose: 57.0 mg/kg/injection, schedule: Q01DX009 (ip), vehicle: saline): 150 % of control
- T/C (dose: 86.0 mg/kg/injection, schedule: Q01DX009 (ip), vehicle: saline): 162 % of control

Compound: CN(C)C1c2ccccc2-c2ccc(N)cc21 (stereo unspecified)
- T/C [11]: 94 % of control

Compound: CN(CCC#N)c1ccc(/C=C(\C#N)c2ccc(Cl)cc2)cc1
- T/C [12]: 102 % of control
- T/C [13]: 103 % of control
- T/C [14]: 105 % of control

Compound: CC1=C(Br)C(=O)C(Br)=C(Br)C1=O
- T/C (dose: 100.0 mg/kg/injection, schedule: Q04DX003 (ip), vehicle: acetone): 96 % of control

Compound: CC(N)C(=O)NC(C(=O)O)C(C)C (stereo unspecified)
- T/C [5]: 101 % of control and 98 % of control
- T/C [7]: 101 % of control and 95 % of control
- T/C [9]: 96 % of control and 95 % of control

Compound: COc1ccc2c3c(ccc2c1)C(=O)C(C)(C#N)CC3 (stereo unspecified)
- T/C [15]: 88 % of control
- T/C [16]: 89 % of control
- T/C [17]: 91 % of control
- T/C [18]: 89 % of control
- T/C [19]: 95 % of control
- T/C [20]: 94 % of control

Compound: CC(CC(=O)O)[Se][Se]C(C)CC(=O)O (stereo unspecified)
- T/C (dose: 100.0 mg/kg/injection, schedule: Q01DX001 (ip), vehicle: Klucel (hydroxypropylcellulose) (HPC)): 108 % of control
- T/C (dose: 200.0 mg/kg/injection, schedule: Q01DX001 (ip), vehicle: Klucel (hydroxypropylcellulose) (HPC)): 102 % of control

Compound: C/C(=N/O)c1ccccc1NO
- T/C (dose: 25.0 mg/kg/injection, schedule: Q01DX001 (ip), vehicle: carboxymethylcellulose (CMC)): 89 % of control
- T/C [21]: 94 % of control
- T/C [11]: 96 % of control
- T/C [22]: 91 % of control
- T/C [23]: 86 % of control

Compound: C=CCC(C)(C)/C=N/N
- T/C (dose: 37.5 mg/kg/injection, schedule: Q04DX003 (ip), vehicle: saline): 101 % of control
- T/C (dose: 75.0 mg/kg/injection, schedule: Q04DX003 (ip), vehicle: saline): 102 % of control
- T/C (dose: 150.0 mg/kg/injection, schedule: Q04DX003 (ip), vehicle: saline): 98 % of control

Compound: Cc1ccc(C(=O)C(F)(F)F)cc1
- T/C [24]: 96 % of control
- T/C [25]: 102 % of control

Compound: COC(=O)C1CCC1(C#N)C(=O)OC (stereo unspecified)
- T/C [15]: 93 % of control
- T/C [16]: 98 % of control
- T/C [17]: 92 % of control
- T/C [18]: 98 % of control
- T/C [19]: 109 % of control
- T/C [20]: 106 % of control

Compound: N#Cc1ccc(Cc2ccc(C#N)cc2)cc1
- T/C [26]: 95 % of control
- T/C [24]: 95 % of control
- T/C [27]: 97 % of control
- T/C [25]: 101 % of control
- T/C (dose: 400.0 mg/kg/injection, schedule: Q01DX009 (ip), vehicle: saline with Tween-80): 100 % of control
- T/C (dose: 400.0 mg/kg/injection, schedule: Q04DX003 (ip), vehicle: saline with Tween-80): 106 % of control

Compound: CSc1ccc(NC(N)=O)cc1
- T/C [1]: 103 % of control
- T/C [2]: 120 % of control
- T/C [3]: 95 % of control

Compound: O=C(COc1ccc(Cl)cc1)Nc1ccc(S(=O)(=O)O)c2ccccc12
- T/C [1]: 98 % of control
- T/C [2]: 98 % of control
- T/C [3]: 98 % of control

Compound: Cc1ccc(Cl)cc1NC(=O)/C=C/c1ccccc1
- T/C [12]: 104 % of control
- T/C [13]: 104 % of control
- T/C [14]: 102 % of control

Compound: CCCCCCCCCCCCCCCC[As](=O)(O)CCCCCCCCCCCCCCCC
- T/C (dose: 50.0 mg/kg/injection, schedule: Q01DX001 (ip), vehicle: saline): 97 % of control
- T/C [4]: 97 % of control
- T/C [6]: 89 % of control
- T/C [8]: 101 % of control

Compound: O=[N+]([O-])c1ccc(OCCO)c([N+](=O)[O-])c1
- T/C (dose: 50.0 mg/kg/injection, schedule: Q04DX003 (ip), vehicle: saline with Tween-80): 104 % of control
- T/C [24]: 104 % of control
- T/C [25]: 103 % of control

Compound: Cc1ccc(OCC(=O)O)c(Cl)c1
- T/C [12]: 104 % of control
- T/C [13]: 94 % of control

Compound: CCOC(=O)C[n+]1ccccc1/C=C/c1ccc(O)cc1
- T/C (dose: 9.38 mg/kg/injection, schedule: Q01DX001 (ip), vehicle: other): 101 % of control

Compound: FC(F)(F)c1ccc2c(c1)N(CCCN1CCN(CC[n+]3ccccc3)CC1)c1ccccc1S2
- T/C (dose: 1.56 mg/kg/injection, schedule: Q01DX009 (ip), vehicle: saline): 95 % of control
- T/C (dose: 3.12 mg/kg/injection, schedule: Q01DX009 (ip), vehicle: saline): 95 % of control
- T/C (dose: 6.25 mg/kg/injection, schedule: Q01DX009 (ip), vehicle: saline): 110 % of control
- T/C (dose: 9.2 mg/kg/injection, schedule: Q01DX009 (ip), vehicle: saline): 120 % of control
- T/C (dose: 12.5 mg/kg/injection, schedule: Q04DX003 (ip), vehicle: saline): 101 % of control
- T/C [10]: 109 % of control
- T/C (dose: 25.0 mg/kg/injection, schedule: Q04DX003 (ip), vehicle: saline): 97 % of control

Compound: O=C(Nc1cccc2ccccc12)N1CCCc2ccccc21
- T/C [21]: 88 % of control
- T/C [11]: 98 % of control
- T/C [22]: 95 % of control
- T/C [23]: 90 % of control

Compound: NC1CCS(=O)(=O)CC1
- T/C (dose: 100.0 mg/kg/injection, schedule: Q01DX001 (ip), vehicle: water): 93 % of control
- T/C (dose: 200.0 mg/kg/injection, schedule: Q01DX001 (ip), vehicle: water): 101 % of control
- T/C (dose: 400.0 mg/kg/injection, schedule: Q01DX001 (ip), vehicle: water): 104 % of control

Compound: O=C=Nc1cccc2c(N=C=O)cccc12
- T/C [26]: 91 % of control

Compound: CN(CCO)N=Nc1ccccc1Cl
- T/C (dose: 25.0 mg/kg/injection, schedule: Q01DX009 (ip), vehicle: other): 101 % of control
- T/C (dose: 50.0 mg/kg/injection, schedule: Q01DX009 (ip), vehicle: other): 100 % of control
- T/C (dose: 100.0 mg/kg/injection, schedule: Q01DX009 (ip), vehicle: other): 94 % of control

Compound: O=Cc1[nH]c(=S)[nH]c(=O)c1Cc1cccc2ccccc12
- T/C [26]: 97 % of control
- T/C [27]: 101 % of control
